# Results reported in patent US9877980B2, “Method and composition for treatment or prevention of type 2 diabetes and hyperlipidemia” (Chun-Ching Shih, priority 2016, dated 2018).
# Marks after values point to notes of the source that are not given here.
# Columns and labels:
# [1] = tested on: C57BL/6J mice on high-fat diet (HFD); assay: Absolute tissue weight, body weight, weight gain and food intake in HFD mice; assay type: in vivo; conditions: 4 weeks
# Method: (§1) The following experiment was performed and approved by the guidelines of the Institutional Animal Care and Use Committee of Central Taiwan University of Science and Technology. The 4-week old male C57BL/6J mice (total amount n=63) were purchased from the National Laboratory Animal Breeding and Research Center (Taipei, Taiwan). After acclimatization for one week, all of the mice were divided randomly into the control (CON) group and the high-fat diet (HFD) group. For the following 12 weeks, the CON group (n=9) was kept on a low-fat diet (Diet 12450B, Research Diets, Inc., New Brunswick, N.J., USA), while the HFD group (n=54) was exposed to a high-fat diet (Diet 12451, Research Diets, New Brunswick, N.J., USA). The low-fat diet was composed of protein 20%, carbohydrate 70% and fat 10%, whereas the high-fat diet was composed of protein 20%, carbohydrate 35%, and fat 45% (of total energy, % kcal). After HFD exposure for 8 weeks, the HFD group was further randomly subdivided into 6 groups (n=9 per group) to receive different treatments by oral gavage once daily for four weeks and on HFD. […] The HF+B1, HF+B2, and […] are collectively termed BB-treated HFD groups in the following examples. The CON mice were administered vehicle. After dosing for 4 weeks, the mice were given no food at night and sacrificed after 12 h of fasting on the next day. All of the individual tissues were collected and weighed, and portions were instantly frozen using liquid nitrogen and kept at −80° C. for subsequent target gene analysis. Blood samples (0.8 mL) were collected for analysis of blood parameters.
# Body weight of each mouse was monitored and measured daily at the same time throughout the experimentation. The difference in body weight between two consecutive days is defined as body weight gain. The food pellets for mice were weighed and put into the food container. Unconsumed pellets of high-fat diet were discarded each day and fresh pellets of high-fat diet were provided to ensure food quality throughout the experimentation. The high-fat food pellets were stored at 4° C.
# PEPCK = assay: Semi-quantitative RT-PCR of liver mRNA: PEPCK; assay type: in vivo; conditions: HFD mice, 4 weeks, vs HF group
# Method: as §1, with “For the following 12 weeks, the CON group (n=9) was kept on a low-fat diet (Diet 12450B, Research Diets, Inc., New Brunswick, N.J., USA), while the HFD group (n=54) was exposed to a high-fat diet (Diet 12451, Research Diets, New Brunswick, N.J., USA). The low-fat diet was composed of protein 20%, carbohydrate 70% and fat 10%, whereas the high-fat diet was composed of protein 20%, carbohydrate 35%, and fat 45% (of total energy, % kcal).” left out
# Total RNA from liver tissue of mice was isolated with a Trizol Reagent (Molecular Research Center, Inc., Cincinnati, Ohio, USA) according to the manufacturer's instructions. The integrity of the extracted total RNA was examined by 2% agarose gel electrophoresis, and the RNA concentration was determined by the ultraviolet (UV) light absorbency at 260 nm and 280 nm (Spectrophotometer U-2800A, Hitachi). The quality of the RNA was confirmed by ethidium bromide staining of 18S and 28S ribosomal RNA after electrophoresis on 2% agarose gel containing 6% formaldehyde.
# Levels of mRNA of genes of interest were quantified by semi-quantitative reverse transcription polymerase chain reaction (RT-PCR). […] PCR products were analyzed by 2% agarose gels and stained with ethidium bromide.
smiles,measurement,setting,value
"OCC1O[C@@H](O[C@@H]2Cc3c(O)cc(O)cc3O[C@@H]2c2ccc(O)c(O)c2)C(O)C(O)[C@@H]1O (single isomer, unassigned; (-)) [compound of formula I, (−)-epicatechin-3-O-β-D-allopyranoside]",Absolute tissue weight BAT,[1]; 10 mg/kg/day oral gavage,0.168 ± 0.011 g
same,Absolute tissue weight EWAT,[1]; 10 mg/kg/day oral gavage,0.906 ± 0.105^d g
same,Absolute tissue weight Liver,[1]; 10 mg/kg/day oral gavage,0.899 ± 0.036 g
same,Absolute tissue weight MWAT,[1]; 10 mg/kg/day oral gavage,0.293 ± 0.018 g
same,Absolute tissue weight RWAT,[1]; 10 mg/kg/day oral gavage,0.280 ± 0.043^d g
same,Absolute tissue weight Skeletal muscle,[1]; 10 mg/kg/day oral gavage,0.873 ± 0.060 g
same,Absolute tissue weight Visceral fat,[1]; 10 mg/kg/day oral gavage,1.273 ± 0.147^d g
same,Body weight,[1]; 10 mg/kg/day oral gavage,27.85 ± 1.04 g
same,Food intake,[1]; 10 mg/kg/day oral gavage,2.08 ± 0.05 g/day/mouse
same,Weight gain,[1]; 10 mg/kg/day oral gavage,0.40 ± 0.28 g
same,Absolute tissue weight BAT,[1]; 20 mg/kg/day oral gavage,0.156 ± 0.017 g
same,Absolute tissue weight EWAT,[1]; 20 mg/kg/day oral gavage,0.902 ± 0.084^d g
same,Absolute tissue weight Liver,[1]; 20 mg/kg/day oral gavage,0.866 ± 0.036 g
same,Absolute tissue weight MWAT,[1]; 20 mg/kg/day oral gavage,0.267 ± 0.021 g
same,Absolute tissue weight RWAT,[1]; 20 mg/kg/day oral gavage,0.263 ± 0.034^f g
same,Absolute tissue weight Skeletal muscle,[1]; 20 mg/kg/day oral gavage,0.813 ± 0.077 g
same,Absolute tissue weight Visceral fat,[1]; 20 mg/kg/day oral gavage,1.199 ± 0.104^e g
same,Body weight,[1]; 20 mg/kg/day oral gavage,27.88 ± 1.14 g
same,Food intake,[1]; 20 mg/kg/day oral gavage,2.03 ± 0.03 g/day/mouse
same,Weight gain,[1]; 20 mg/kg/day oral gavage,0.61 ± 0.43 g
same,Absolute tissue weight BAT,[1]; 40 mg/kg/day oral gavage,0.144 ± 0.010 g
same,Absolute tissue weight EWAT,[1]; 40 mg/kg/day oral gavage,0.936 ± 0.075^d g
same,Absolute tissue weight Liver,[1]; 40 mg/kg/day oral gavage,0.848 ± 0.028 g
same,Absolute tissue weight MWAT,[1]; 40 mg/kg/day oral gavage,0.236 ± 0.030 g
same,Absolute tissue weight RWAT,[1]; 40 mg/kg/day oral gavage,0.233 ± 0.026^f g
same,Absolute tissue weight Skeletal muscle,[1]; 40 mg/kg/day oral gavage,1.156 ± 0.102^d g
same,Absolute tissue weight Visceral fat,[1]; 40 mg/kg/day oral gavage,1.198 ± 0.075^e g
same,Body weight,[1]; 40 mg/kg/day oral gavage,27.15 ± 0.84 g
same,Food intake,[1]; 40 mg/kg/day oral gavage,2.02 ± 0.03 g/day/mouse
same,Weight gain,[1]; 40 mg/kg/day oral gavage,−0.05 ± 0.11^d g
same,liver mRNA level of PEPCK,PEPCK; 10 mg/kg/day oral gavage,significantly reduced
same,liver mRNA level of PEPCK,PEPCK; 20 mg/kg/day oral gavage,significantly reduced
same,liver mRNA level of PEPCK,PEPCK; 40 mg/kg/day oral gavage,significantly reduced
